In US12187773B2, “Modified GIP peptide analogues” (Antag Therapeutics ApS, priority 2018, dated 2025):
*1 amine or outer side, *2 acyl side, *3 side chain or, on linkers, in order; H or OH if unused. Where a SMILES comes first, the peptide text is derived from it. Side-chain parts run from the residue outwards. The star is where a group is joined. C16 diacid = O=C(O)CCCCCCCCCCCCCCC(=O)*; γGlu = O=C(O)[C@H](CCC(=O)[*:2])N[*:1]; AEEA = NCCOCCOCC(=O)O

What was measured:
Type in all cases: cell-based
[1] = molecular target: T1, human GIP receptor (Homo sapiens, UniProt P48546); experiment: cAMP agonism (CisBio cAMP Dynamic 2 HTRF assay); conditions: HEK293, read-out: cAMP agonism, % Efficacy, Table 1C, HEK-293 cells
T1 sequence (P48546 22-466): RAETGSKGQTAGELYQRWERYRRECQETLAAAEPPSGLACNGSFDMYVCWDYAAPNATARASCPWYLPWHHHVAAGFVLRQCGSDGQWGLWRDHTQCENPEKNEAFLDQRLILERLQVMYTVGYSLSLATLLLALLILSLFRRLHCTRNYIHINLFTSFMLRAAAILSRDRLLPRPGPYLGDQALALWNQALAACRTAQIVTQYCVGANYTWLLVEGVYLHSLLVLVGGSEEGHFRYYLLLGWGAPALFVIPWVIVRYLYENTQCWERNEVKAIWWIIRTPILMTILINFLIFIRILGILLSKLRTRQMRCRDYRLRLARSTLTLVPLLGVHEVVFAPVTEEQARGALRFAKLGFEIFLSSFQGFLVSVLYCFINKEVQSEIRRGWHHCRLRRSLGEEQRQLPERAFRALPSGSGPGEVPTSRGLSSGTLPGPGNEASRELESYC
Procedure: To test for agonistic properties at the GIP receptor, compounds were diluted and added to cells as described above and incubated for 30 min at 37° C. The resulting increase in intracellular cAMP was determined using the CisBio cAMP Dynamic 2 HTRF Assay Kit as described above.

[2] = molecular target: T1, human GIP receptor; experiment: cAMP accumulation, agonism (DiscoveRx HitHunter cAMP XS assay); set-up: host or cells: COS-7 (transient, calcium phosphate; pCMV-Script vector); conditions: Table 1B; DiscoveRx; COS-7 cells
Summary of the method: (§1)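 cAMP accumulation measured by HitHunter cAMP XS in COS-7 cells transiently expressing human GIP receptor, after 30 min in HBS with 1 mM IBMX at 37 °C. Antagonists preincubated 10 min before GIP giving 50-80% of maximum, then 20 min more; agonist mode used 30 min ligand exposure.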

[3] = molecular target: T1, human GIP receptor; experiment: cAMP accumulation, antagonism (DiscoveRx HitHunter cAMP XS assay); set-up: host or cells: COS-7 (transient, calcium phosphate; pCMV-Script vector); conditions: Table 1B, DiscoveRx; for cAMP antagonism, % inhib: COS-7 cells, % inhibition of Emax; for IC50: cAMP antagonism, nM (IC50), transiently transfected COS-7 cells
Summary of the method: as §1

[4] = molecular target: T1, human GIP receptor; experiment: cAMP antagonism (CisBio cAMP Dynamic 2 HTRF assay); set-up: pCMV-Script vector; conditions: Table 1C, CisBio, HEK-293 cells; for IC50: cAMP antagonism, nM (IC50), agonist GIP1-42 at EC50
Summary of the method: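 Four-parameter fits of cAMP dose-response gave pIC50. cAMP fall was quantified by HTRF competition, ratio 665/620 nm after 60 min at room temperature, against a cAMP standard curve.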

SMILES	Emax [1] [%]	cAMP agonism, Emax [2]	cAMP antagonism, % inhib [3] [%]	IC50 [3] [nM]	cAMP antagonism, % inhib [4] [%]	IC50 [4] [nM]
CC[C@H](C)[C@H](NC(=O)[C@H](CO)NC(=O)[C@H](Cc1ccc(O)cc1)NC(=O)[C@H](CC(=O)O)NC(=O)[C@H](CO)NC(=O)[C@@H](NC(=O)[C@H](Cc1ccccc1)NC(=O)[C@@H](NC(=O)CNC(=O)[C@@H]1CCCN1)[C@@H](C)O)[C@@H](C)CC)C(=O)N[C@@H](C)C(=O)N[C@@H](CCSC)C(=O)N[C@@H](CC(=O)O)C(=O)N[C@@H](CCCNC(=N)N)C(=O)N[C@H](C(=O)N[C@@H](CCCCNC(=O)CC[C@H](NC(=O)CCCCCCCCCCCCCCC(=O)O)C(=O)O)C(=O)N[C@@H](CCC(N)=O)C(=O)N[C@@H](CCC(N)=O)C(=O)N[C@@H](CC(=O)O)C(=O)N[C@@H](Cc1ccccc1)C(=O)N[C@H](C(=O)N[C@@H](CC(N)=O)C(=O)N[C@@H](Cc1c[nH]c2ccccc12)C(=O)N[C@@H](CC(C)C)C(=O)N[C@@H](CC(C)C)C(=O)N[C@@H](C)C(=O)N[C@@H](CCC(N)=O)C(=O)N[C@@H](CCCNC(=N)N)C(N)=O)C(C)C)[C@@H](C)CC [AT506] (HELM PEPTIDE1{P.G.T.F.I.S.D.Y.S.I.A.M.D.R.I.K.Q.Q.D.F.V.N.W.L.L.A.Q.R.[am]}|PEPTIDE2{[O=C(O)CCCCCCCCCCCCCCC(=O)[*:2]].[gGlu]}$PEPTIDE1,PEPTIDE2,16:R3-2:R2$$$V2.0; N-terminus assumed)	5	No Agonism	90	91	78	
CC[C@H](C)[C@H](NC(=O)[C@H](CO)NC(=O)[C@H](Cc1ccc(O)cc1)NC(=O)[C@H](CC(=O)O)NC(=O)[C@H](CO)NC(=O)[C@@H](NC(=O)[C@H](Cc1ccccc1)NC(=O)[C@@H](NC(=O)CNC(=O)CN)[C@@H](C)O)[C@@H](C)CC)C(=O)N[C@@H](C)C(=O)N[C@@H](CCSC)C(=O)N[C@@H](CC(=O)O)C(=O)N[C@@H](CCCNC(=N)N)C(=O)N[C@H](C(=O)N[C@@H](CCCCNC(=O)COCCOCCNC(=O)CC[C@H](NC(=O)CCCCCCCCCCCCCCC(=O)O)C(=O)O)C(=O)N[C@@H](CCC(N)=O)C(=O)N[C@@H](CCC(N)=O)C(=O)N[C@@H](CC(=O)O)C(=O)N[C@@H](Cc1ccccc1)C(=O)N[C@H](C(=O)N[C@@H](CC(N)=O)C(=O)N[C@@H](Cc1c[nH]c2ccccc12)C(=O)N[C@@H](CC(C)C)C(=O)N[C@@H](CC(C)C)C(=O)N[C@@H](C)C(=O)N[C@@H](CCC(N)=O)C(=O)N[C@@H](CCCNC(=N)N)C(N)=O)C(C)C)[C@@H](C)CC [AT508] (HELM PEPTIDE1{G.G.T.F.I.S.D.Y.S.I.A.M.D.R.I.K.Q.Q.D.F.V.N.W.L.L.A.Q.R.[am]}|PEPTIDE2{[O=C(O)CCCCCCCCCCCCCCC(=O)[*:2]].[gGlu].[O=C(COCCOCCN[*:1])[*:2]]}$PEPTIDE1,PEPTIDE2,16:R3-3:R2$$$V2.0; N-terminus assumed)	0	No Agonism	100	23	89	
CC[C@H](C)[C@H](NC(=O)[C@H](CO)NC(=O)[C@H](Cc1ccc(O)cc1)NC(=O)[C@H](CC(=O)O)NC(=O)[C@H](CO)NC(=O)[C@@H](NC(=O)[C@H](Cc1ccccc1)NC(=O)[C@@H](NC(=O)CNC(=O)[C@@H](N)CO)[C@@H](C)O)[C@@H](C)CC)C(=O)N[C@@H](C)C(=O)N[C@@H](CCSC)C(=O)N[C@@H](CC(=O)O)C(=O)N[C@@H](CCCNC(=N)N)C(=O)N[C@H](C(=O)N[C@@H](CCCCNC(=O)COCCOCCNC(=O)CC[C@H](NC(=O)CCCCCCCCCCCCCCC(=O)O)C(=O)O)C(=O)N[C@@H](CCC(N)=O)C(=O)N[C@@H](CCC(N)=O)C(=O)N[C@@H](CC(=O)O)C(=O)N[C@@H](Cc1ccccc1)C(=O)N[C@H](C(=O)N[C@@H](CC(N)=O)C(=O)N[C@@H](Cc1c[nH]c2ccccc12)C(=O)N[C@@H](CC(C)C)C(=O)N[C@@H](CC(C)C)C(=O)N[C@@H](C)C(=O)N[C@@H](CCC(N)=O)C(=O)N[C@@H](CCCNC(=N)N)C(N)=O)C(C)C)[C@@H](C)CC [AT510] (HELM PEPTIDE1{S.G.T.F.I.S.D.Y.S.I.A.M.D.R.I.K.Q.Q.D.F.V.N.W.L.L.A.Q.R.[am]}|PEPTIDE2{[O=C(O)CCCCCCCCCCCCCCC(=O)[*:2]].[gGlu].[O=C(COCCOCCN[*:1])[*:2]]}$PEPTIDE1,PEPTIDE2,16:R3-3:R2$$$V2.0; N-terminus assumed)	2	No Agonism	100		87	58.4
CC[C@H](C)[C@H](NC(=O)[C@H](CO)NC(=O)[C@H](Cc1ccc(O)cc1)NC(=O)[C@H](CC(=O)O)NC(=O)[C@H](CO)NC(=O)[C@@H](NC(=O)[C@H](Cc1ccccc1)NC(=O)[C@@H](NC(=O)CNC(=O)[C@@H]1CCCN1)[C@@H](C)O)[C@@H](C)CC)C(=O)N[C@@H](C)C(=O)N[C@@H](CCSC)C(=O)N[C@@H](CC(=O)O)C(=O)N[C@@H](CCCNC(=N)N)C(=O)N[C@H](C(=O)N[C@@H](CCCCNC(=O)COCCOCCNC(=O)CC[C@H](NC(=O)CCCCCCCCCCCCCCC(=O)O)C(=O)O)C(=O)N[C@@H](CCC(N)=O)C(=O)N[C@@H](CCC(N)=O)C(=O)N[C@@H](CC(=O)O)C(=O)N[C@@H](Cc1ccccc1)C(=O)N[C@H](C(=O)N[C@@H](CC(N)=O)C(=O)N[C@@H](Cc1c[nH]c2ccccc12)C(=O)N[C@@H](CC(C)C)C(=O)N[C@@H](CC(C)C)C(=O)N[C@@H](C)C(=O)N[C@@H](CCC(N)=O)C(=O)N[C@@H](CCCNC(=N)N)C(N)=O)C(C)C)[C@@H](C)CC [AT512] (HELM PEPTIDE1{P.G.T.F.I.S.D.Y.S.I.A.M.D.R.I.K.Q.Q.D.F.V.N.W.L.L.A.Q.R.[am]}|PEPTIDE2{[O=C(O)CCCCCCCCCCCCCCC(=O)[*:2]].[gGlu].[O=C(COCCOCCN[*:1])[*:2]]}$PEPTIDE1,PEPTIDE2,16:R3-3:R2$$$V2.0; N-terminus assumed)	0	No Agonism	80		73	79.4
CC[C@H](C)[C@H](NC(=O)[C@H](CO)NC(=O)[C@H](Cc1ccc(O)cc1)NC(=O)[C@H](CC(=O)O)NC(=O)[C@H](CO)NC(=O)[C@@H](NC(=O)[C@H](Cc1ccccc1)NC(=O)[C@@H](NC(=O)CNC(=O)CN)[C@@H](C)O)[C@@H](C)CC)C(=O)N[C@@H](C)C(=O)N[C@@H](CCSC)C(=O)N[C@@H](CC(=O)O)C(=O)N[C@@H](CCCNC(=N)N)C(=O)N[C@H](C(=O)N[C@@H](CCCCNC(=O)COCCOCCNC(=O)COCCOCCNC(=O)CC[C@H](NC(=O)CCCCCCCCCCCCCCC(=O)O)C(=O)O)C(=O)N[C@@H](CCC(N)=O)C(=O)N[C@@H](CCC(N)=O)C(=O)N[C@@H](CC(=O)O)C(=O)N[C@@H](Cc1ccccc1)C(=O)N[C@H](C(=O)N[C@@H](CC(N)=O)C(=O)N[C@@H](Cc1c[nH]c2ccccc12)C(=O)N[C@@H](CC(C)C)C(=O)N[C@@H](CC(C)C)C(=O)N[C@@H](C)C(=O)N[C@@H](CCC(N)=O)C(=O)N[C@@H](CCCNC(=N)N)C(N)=O)C(C)C)[C@@H](C)CC [AT514] (H-GGTFISDYSIAMDRIK([AEEA-AEEA-γGlu-C16 diacid])QQDFVNWLLAQR-NH2; N-terminus assumed)	0	No Agonism	80		86	31.6
